Laboratory results published in patent publication US20140357577A1, “HIV Membrane Fusion Inhibitors” (priority 2011, published 2014).
Starred links: 1 amine or outer side, 2 acyl side, 3 side chain; linkers in the order of their positions; H or OH if unused. Positions of bridges follow the written chain, without caps; N, C: chain ends. Non-standard residues stand in square brackets, D forms with d. Primed or numbered codes have the meaning given here. *: point of attachment. cholesteryl‑oxycarbonylmethyl = CC(C)CCC[C@@H](C)[C@H]1CC[C@H]2[C@@H]3CC=C4C[C@@H](OC(=O)C*)CC[C@]4(C)[C@H]3CC[C@]12C; B21″ = 2,7-dimethylnaphtyl linker joining two Cys, c1cc2ccc(C[*:2])cc2cc1C[*:1]; tBuAla = CC(C)(C)C[C@H](N)C(=O)O; Suc = O=C(CCC(=O)[*:2])[*:1]; Pentanoyl = CCCCC(=O)*; B1 = not defined here; B2 = not defined here

Legend:
[1] = test system: HIV-IIIB + 50% HS; assay: Standard AVE (50% Human Serum), HIV-1 replication assay in MT4-LTR-EGFP cells; format: cell-based; details: fold change vs EC50 in the assay without human serum
Source text: The HIV-1 replication assay (with 50% human serum) measures virus replication as an induction of enhanced green fluorescent protein (EGFP) expression, in the presence of 50% human serum. The indicator MT4-LTR-EGFP cells contain an EGFP gene under the control of the HIV-1 LTR promoter sequence. Successful HIV-1 infection results in viral Tat protein expression and subsequent induction of EGFP expression. Compounds/peptides inhibiting HIV-1 infection are expected to reduce EGFP expression as compared to the untreated HIV-infected control. Compounds/peptides binding to human serum are expected to have a reduced activity for inhibiting the virus in the assay.
Serial 4-fold dilutions of test compounds/peptides were mixed with HIV-1 and MT4-LTR-EGFP cells and incubated at 37° C., in the presence of 50% human serum. After 3 days, the wells were examined for EGFP expression using an argon laser-scanning microscope. The effective compound/peptide concentration inhibiting 50% of the virus-induced EGFP signal (EC50) was determined by linear interpolation of the EGFP signal vs. logarithm of the compound concentration; T20, C34 and Sifuvirtide were added as reference compounds. Results were reported as a fold change in EC50, as compared with the acquired EC50 in the assay without human serum.

[2] = test system: HIV wild type virus strain IIIB; assay: Standard Anti-Viral-Experiment (AVE), HIV-1 replication assay in MT4-LTR-EGFP cells, wild type IIIB; format: cell-based; details: 3 days, EGFP signal
Source text: • Standard Anti-Viral-Experiment “AVE” (wild type HIV strain IIIB+HIV strain HXB2D side directed mutants V38A and Q40H)
The HIV-1 replication assay measures virus replication (HIV wild type virus strain 111B or HXB2D, or a HIV mutant virus strain HXB2D with mutation V38A or Q40H in the gp41 gene) as an induction of enhanced green fluorescent protein (EGFP) expression. The indicator MT4-LTR-EGFP cells contain an EGFP gene under the control of the HIV-1 LTR promoter sequence. Successful HIV-1 infection results in viral Tat protein expression and subsequent induction of EGFP expression. Compounds/peptides inhibiting HIV-1 infection are expected to reduce EGFP expression as compared to the untreated HIV-infected control.
Serial 4-fold dilutions of test compounds/peptides were mixed with HIV-1 (IIIB, HXB2D, or a HXB2D mutant virus (V38A or Q40H)) and MT4-LTR-EGFP cells and incubated at 37° C. After 3 days, the wells were examined for EGFP expression using an argon laser-scanning microscope. The effective compound/peptide concentration inhibiting 50% of the virus-induced EGFP signal (EC50) was determined by linear interpolation of the EGFP signal vs. logarithm of the compound concentration; (T20, C34 and Sifuvirtide were added as reference compounds). For the V38A and Q40H mutant viruses, results were reported as a fold change in EC50, as compared with a drug-susceptible wild type strain HXB2D, which forms the backbone of the mutant virus. • Standard AVE (50% Human Serum)

[3] = biological target: gp41 of HIV-1 strain HXB2D with mutation V38A (HIV-1 strain HXB2D, UniProt P04578); assay: cell-based or functional assay

AC-ACYAACIEALIRAAQEQQEKNEAALR-NH2 [Peptide 89]
HIV-IIIB + 50% HS (Fold change in EC50) [1]: 3
EC50 [2]: 18 nM

AC-ACYAACIEALIRAAREQQEKNEAALR-NH2 [Peptide 84]
HIV-IIIB + 50% HS (Fold change in EC50) [1]: 4
EC50 [2]: 13 nM

AC-ACYWACIEALIRAAQEQQEKNEAALR-NH2 [Peptide 63]
HIV-IIIB + 50% HS (Fold change in EC50) [1]: 3
EC50 [2]: 7 nM

AC-ECYAACIEALIRAAQEQQEKNEAALR-NH2 [Peptide 74]
HIV-IIIB + 50% HS (Fold change in EC50) [1]: 0.9
EC50 [2]: 53 nM

ANYAALIEALIRKAQEQQEKNEAALR [Peptide 5]
HIV-IIIB + 50% HS (Fold change in EC50) [1]: 0.5
EC50 [2]: 48 nM

ANYLALIEALIRAAQEQQEKNEAALR [Peptide 6]
HIV-IIIB + 50% HS (Fold change in EC50) [1]: 0.7
EC50 [2]: 5 nM

Ac-ACYAACIDALIRAAQEQQEKNEAALR-NH2 [Peptide 70]
HIV-IIIB + 50% HS (Fold change in EC50) [1]: 1
EC50 [2]: 23 nM

Ac-ACYAACIEALIRAAQEQQEKNEAALR-NH2 [Peptide 64]
HIV-IIIB + 50% HS (Fold change in EC50) [1]: 0.8
EC50 [2]: 56 nM

Ac-ACYAACIEALIRAAQEQQEKNEAALR-NH2 [Peptide 65]
HIV-IIIB + 50% HS (Fold change in EC50) [1]: 1
EC50 [2]: 17 nM

Ac-ACYAACIEALIRAAQEQQEKNEALLR-NH2 [Peptide 73]
HIV-IIIB + 50% HS (Fold change in EC50) [1]: 3
EC50 [2]: 21 nM

Ac-ACYAACIEALIRKAQEQQEKNEAALR-NH2 [Peptide 71]
HIV-IIIB + 50% HS (Fold change in EC50) [1]: 1
EC50 [2]: 8 nM

Ac-ACYAACIEELIRKAQEQQEKNEAALR-NH2 [Peptide 72]
HIV-IIIB + 50% HS (Fold change in EC50) [1]: 0.6
EC50 [2]: 15 nM

Ac-ACYAAcIEALIRAAQEQQEKNEAALR-NH2 [Peptide 83]
HIV-IIIB + 50% HS (Fold change in EC50) [1]: 3
EC50 [2]: 54 nM

Ac-ACYFACIEALIRAAQEQQEKNEAALR-NH2 [Peptide 61]
HIV-IIIB + 50% HS (Fold change in EC50) [1]: 4
EC50 [2]: 4 nM

Ac-ACYIACIEALIRAAQEQQEKNEAALR-NH2 [Peptide 57]
HIV-IIIB + 50% HS (Fold change in EC50) [1]: 2
EC50 [2]: 4 nM

Ac-ACYIACIEALIRAAQEQQEKNEAALR-NH2 [Peptide 58]
HIV-IIIB + 50% HS (Fold change in EC50) [1]: 6
EC50 [2]: 4 nM

Ac-ACYLACIEALIRAAQEQQEKNEAALL-NH2 [Peptide 54]
HIV-IIIB + 50% HS (Fold change in EC50) [1]: 2
EC50 [2]: 3 nM

Ac-ACYLACIEALIRAAQEQQEKNEAALR-NH2 [Peptide 56]
HIV-IIIB + 50% HS (Fold change in EC50) [1]: 2
EC50 [2]: 4 nM

Ac-ACYVACIEALIRAAQEQQEKNEAALR-NH2 [Peptide 62]
HIV-IIIB + 50% HS (Fold change in EC50) [1]: 2
EC50 [2]: 10 nM

Ac-CYAACIEALIRAAQEQQEKNEAALR-NH2 [Peptide 21]
HIV-IIIB + 50% HS (Fold change in EC50) [1]: 3
EC50 [2]: 5 nM

Ac-CYAACIEALIRAAQEQQEKNEAALR-NH2 [Peptide 22]
HIV-IIIB + 50% HS (Fold change in EC50) [1]: 2
EC50 [2]: 35 nM

Ac-aCYAACIEALIRAAQEQQEKNEAALr-NH2 [Peptide 75]
HIV-IIIB + 50% HS (Fold change in EC50) [1]: 4
EC50 [2]: 29 nM

Ac-aCYAACIEALIRAAQEQQEKNEAALr-NH2 [Peptide 76]
HIV-IIIB + 50% HS (Fold change in EC50) [1]: 2

ENYTRQIYRILEESQEQQDRNERDLL [Slfuvlrtlde-PBD, reference compound]
HIV-IIIB + 50% HS (Fold change in EC50) [1]: 0.8
EC50 [2]: 36400 nM

Penlanoyl-ECYLACIEALIRAAQEQQEKNEAALR-NH2 (Pentanoyl-ECYLACIEALIRAAQEQQEKNEAALR-NH2; cysteine pairing not given here) [Peptide 39]
HIV-IIIB + 50% HS (Fold change in EC50) [1]: 5
EC50 [2]: 7 nM

Suc-ACYAACIEALIRAAQEQQEKNEAALR-NH2 (cysteine pairing not given here) [Peptide 67]
HIV-IIIB + 50% HS (Fold change in EC50) [1]: 0.8
EC50 [2]: 8 nM

Suc-ANYAALIEALIRAAQEQQEKNEAALR-NH2 (SMILES CC[C@H](C)[C@H](NC(=O)[C@H](CC(C)C)NC(=O)[C@H](C)NC(=O)[C@H](CCC(=O)O)NC(=O)[C@@H](NC(=O)[C@H](CC(C)C)NC(=O)[C@H](C)NC(=O)[C@H](C)NC(=O)[C@H](Cc1ccc(O)cc1)NC(=O)[C@H](CC(N)=O)NC(=O)[C@H](C)NC(=O)CCC(=O)O)[C@@H](C)CC)C(=O)N[C@@H](CCCNC(=N)N)C(=O)N[C@@H](C)C(=O)N[C@@H](C)C(=O)N[C@@H](CCC(N)=O)C(=O)N[C@@H](CCC(=O)O)C(=O)N[C@@H](CCC(N)=O)C(=O)N[C@@H](CCC(N)=O)C(=O)N[C@@H](CCC(=O)O)C(=O)N[C@@H](CCCCN)C(=O)N[C@@H](CC(N)=O)C(=O)N[C@@H](CCC(=O)O)C(=O)N[C@@H](C)C(=O)N[C@@H](C)C(=O)N[C@@H](CC(C)C)C(=O)N[C@@H](CCCNC(=N)N)C(N)=O) [Peptide 3]
HIV-IIIB + 50% HS (Fold change in EC50) [1]: 0.4
EC50 [2]: 22 nM

Suc-ANYLALIEALIRAAQEQQEKNEAAL-NH2 (SMILES CC[C@H](C)[C@H](NC(=O)[C@H](CC(C)C)NC(=O)[C@H](C)NC(=O)[C@H](CCC(=O)O)NC(=O)[C@@H](NC(=O)[C@H](CC(C)C)NC(=O)[C@H](C)NC(=O)[C@H](CC(C)C)NC(=O)[C@H](Cc1ccc(O)cc1)NC(=O)[C@H](CC(N)=O)NC(=O)[C@H](C)NC(=O)CCC(=O)O)[C@@H](C)CC)C(=O)N[C@@H](CCCNC(=N)N)C(=O)N[C@@H](C)C(=O)N[C@@H](C)C(=O)N[C@@H](CCC(N)=O)C(=O)N[C@@H](CCC(=O)O)C(=O)N[C@@H](CCC(N)=O)C(=O)N[C@@H](CCC(N)=O)C(=O)N[C@@H](CCC(=O)O)C(=O)N[C@@H](CCCCN)C(=O)N[C@@H](CC(N)=O)C(=O)N[C@@H](CCC(=O)O)C(=O)N[C@@H](C)C(=O)N[C@@H](C)C(=O)N[C@@H](CC(C)C)C(N)=O) [Peptide 1]
HIV-IIIB + 50% HS (Fold change in EC50) [1]: 0.4
EC50 [2]: 4 nM

Suc-ECYLRCIEELIRKAQEQQEKNEAALRGSGC(cholesteryl-oxycarbonylmethyl)-NH2 (Suc-ECYLRCIEELIRKAQEQQEKNEAALRGSGC(cholesteryl‑oxycarbonylmethyl)-NH2; cysteine pairing not given here) [Peptide 82]
HIV-IIIB + 50% HS (Fold change in EC50) [1]: 6
EC50 [2]: 0.05 nM

Ac-CYAACIEALIRAAQEQQEKNEAALR-NH2 (linker 1-5 via B1; reading uncertain) [peptide 21]
fold change in EC50, HIV-HXB2D V38A mutant [3]: 75 fold

Suc-CYLACIEELIRKAQEQQEKNEAAL[tBuAla]-NH2 (linker 1-5 via B2; reading uncertain) [peptide 23]
fold change in EC50, HIV-HXB2D V38A mutant [3]: 45 fold

B1: peptide 22 (peptide)
peptide: Ac-CYAACIEALIRAAQEQQEKNEAALR-NH2
modifications: linker 1-5 via B21″
SMILES: CC[C@H](C)[C@H](NC(=O)[C@H](CC(C)C)NC(=O)[C@H](C)NC(=O)[C@H](CCC(=O)O)NC(=O)[C@@H](NC(=O)[C@@H]1CSCc2ccc3ccc(cc3c2)CSC[C@H](NC(C)=O)C(=O)N[C@@H](Cc2ccc(O)cc2)C(=O)N[C@@H](C)C(=O)N[C@@H](C)C(=O)N1)[C@@H](C)CC)C(=O)N[C@@H](CCCNC(=N)N)C(=O)N[C@@H](C)C(=O)N[C@@H](C)C(=O)N[C@@H](CCC(N)=O)C(=O)N[C@@H](CCC(=O)O)C(=O)N[C@@H](CCC(N)=O)C(=O)N[C@@H](CCC(N)=O)C(=O)N[C@@H](CCC(=O)O)C(=O)N[C@@H](CCCCN)C(=O)N[C@@H](CC(N)=O)C(=O)N[C@@H](CCC(=O)O)C(=O)N[C@@H](C)C(=O)N[C@@H](C)C(=O)N[C@@H](CC(C)C)C(=O)N[C@@H](CCCNC(=N)N)C(N)=O
fold change in EC50, HIV-HXB2D V38A mutant [3]: 19 fold
